The source of these data is US20260356851A1, “TRICYCLIC COMPOUNDS AND USES THEREOF” (HUTCHMED LIMITED, priority 2023, published 2026).

Assay type in all cases: cell-based
Assay [1] deals with T1, pERK1/2 (Thr202/Tyr204), PANC-1 (KRAS G121D) (Homo sapiens, UniProt P01116, G12D).
T1 construct: pERK1/2 HTRF read-out
The assay can be described thus: Assay of intracellular pERK1/2 (Thr202/Tyr204) phosphorylation in PANC-1 cells (KRAS G12D). The conditions noted are these: pERK1/2, 2 days, read-out: PANC-1 (KRAS G12D) IC50. An outline of the steps: (§1)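 Cells (10000-12000/well) exposed to 3-fold compound dilutions for 2 days at 37 °C, then lysed; pERK1/2 (Thr202/Tyr204) measured by HTRF with d2 and cryptate antibodies, 665/615 nm ratio.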

In assay [2] the target is T2, pERK1/2 (Thr202/Tyr204), NCI-1H358 (KRAS G12C) (Homo sapiens, UniProt P01116, G12C).
T2 construct: pERK1/2 HTRF read-out
In words: Assay of intracellular pERK1/2 (Thr202/Tyr204) phosphorylation in NCI-H358 cells (KRAS G12C). The conditions noted are these: pERK1/2, 2 days, read-out: NCI-H358 (KRAS G12C) IC50. An outline of the steps: as §1

Assay [3] has as its target T3, pERK1/2 (Thr202/Tyr204), NCI-1H441 (KRAS G12V) (Homo sapiens, UniProt P01116, G12V).
T3 construct: pERK1/2 HTRF read-out
In words: Assay of intracellular pERK1/2 (Thr202/Tyr204) phosphorylation in NCI-H441 cells (KRAS G12V). The conditions noted are these: pERK1/2, 2 days, read-out: NCI-H441 (KRAS G12V) IC50. An outline of the steps:
as §1

What is called IC50 is the concentration at which inhibition is half-maximal.

T2 sequence (P01116 1-188 isoform P01116-2 G12C): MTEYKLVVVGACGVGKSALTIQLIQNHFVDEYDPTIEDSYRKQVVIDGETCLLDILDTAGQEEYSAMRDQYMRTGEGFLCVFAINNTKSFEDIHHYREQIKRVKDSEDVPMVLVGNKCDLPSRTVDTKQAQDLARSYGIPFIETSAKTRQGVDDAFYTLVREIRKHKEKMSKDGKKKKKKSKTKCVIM
T1 sequence (P01116 1-188 isoform P01116-2 G12D): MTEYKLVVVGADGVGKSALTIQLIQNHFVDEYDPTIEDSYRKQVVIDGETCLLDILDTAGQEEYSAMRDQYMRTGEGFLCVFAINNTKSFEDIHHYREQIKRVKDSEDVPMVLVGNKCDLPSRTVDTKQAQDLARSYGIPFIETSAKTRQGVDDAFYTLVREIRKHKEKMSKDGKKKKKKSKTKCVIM
T3 sequence (P01116 1-188 isoform P01116-2 G12V): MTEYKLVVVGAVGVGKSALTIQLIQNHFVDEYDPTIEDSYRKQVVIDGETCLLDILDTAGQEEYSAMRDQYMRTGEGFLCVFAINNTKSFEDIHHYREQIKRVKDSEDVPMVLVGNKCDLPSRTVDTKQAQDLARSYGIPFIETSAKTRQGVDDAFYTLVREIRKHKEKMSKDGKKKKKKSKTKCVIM

For `[2H]C1([2H])Oc2nc(-c3cc(N)c(F)c(C)c3C(F)(F)F)c(F)c3nc(OC[C@@H]4C[C@@H](F)CN4C)nc(c23)N(C(C)c2cccnc2N)C1([2H])[2H]` (single isomer, unassigned) [Compound 203, 3-((R or S)-1-(5-(5-amino-4-fluoro-3-methyl-2-(trifluoromethyl)phenyl)-4-fluoro-2-(((2S,4R)-4-fluoro-1-methylpyrrolidin-2-yl)methoxy)-8,9-dihydro-10H-7-oxa-1,3,6,10-tetraazacyclohepta[de]naphthalen-10-yl-8,8,9,9-d4)ethyl)pyridin-2-amine], the IC50 is over 100 nM in assay [1], 88 nM in assay [2] and over 100 nM in assay [3].
Regarding `[2H]C1([2H])Oc2nc(-c3cc(N)c(F)c(Cl)c3C(F)(F)F)c(F)c3nc(OC[C@@]45CCCN4C[C@H](F)C5)nc(c23)N(C(C)c2cccnc2N)C1([2H])[2H]` (single isomer, unassigned) [Compound 206, 3-((R or S)-1-(5-(5-amino-3-chloro-4-fluoro-2-(trifluoromethyl)phenyl)-4-fluoro-2-(((2R,7aS)-2-fluorotetrahydro-1H-pyrrolizin-7a(5H)-yl)methoxy)-8,9-dihydro-10H-7-oxa-1,3,6,10-tetraazacyclohepta[de]naphthalen-10-yl-8,8,9,9-d4)ethyl)pyridin-2-amine], the IC50 in assay [1] is 0.8 nM; in assay [2], 0.2 nM; in assay [3], 0.3 nM.
Taken in the same sequence, the figures for `[2H]C1([2H])Oc2nc(-c3cc(N)c(F)c(Cl)c3C(F)(F)F)c(F)c3nc(OC[C@@]45CCCN4C[C@H](F)C5)nc(c23)N(C(C)c2cccnc2N)C1([2H])[2H]` (single isomer, unassigned) [Compound 207, 3-((R or S)-1-(5-(5-amino-3-chloro-4-fluoro-2-(trifluoromethyl)phenyl)-4-fluoro-2-(((2R,7aS)-2-fluorotetrahydro-1H-pyrrolizin-7a(5H)-yl)methoxy)-8,9-dihydro-10H-7-oxa-1,3,6,10-tetraazacyclohepta[de]naphthalen-10-yl-8,8,9,9-d4)ethyl)pyridin-2-amine] were over 100 nM, 9 nM and 33 nM.
For the molecule `[2H]C1([2H])Oc2nc(-c3cc(N)c(F)c(Cl)c3C(F)(F)F)c(F)c3nc(OC[C@@H]4C[C@@H](F)CN4C)nc(c23)N(C(C)c2cccnc2N)C1([2H])[2H]` (single isomer, unassigned) [Compound 208, 3-((R or S)-1-(5-(5-amino-3-chloro-4-fluoro-2-(trifluoromethyl)phenyl)-4-fluoro-2-(((2S,4R)-4-fluoro-1-methylpyrrolidin-2-yl)methoxy)-8,9-dihydro-10H-7-oxa-1,3,6,10-tetraazacyclohepta[de]naphthalen-10-yl-8,8,9,9-d4)ethyl)pyridin-2-amine], the figures for the IC50 in assay [1], in assay [2] and in assay [3] were 10 nM, 0.4 nM and 1 nM, respectively.
As to `[2H]C1([2H])Oc2nc(-c3cc(N)c(F)c(Cl)c3C(F)(F)F)c(F)c3nc(OC[C@@H]4C[C@@H](F)CN4C)nc(c23)N(C(C)c2cccnc2N)C1([2H])[2H]` (single isomer, unassigned) [Compound 209, 3-((R or S)-1-(5-(5-amino-3-chloro-4-fluoro-2-(trifluoromethyl)phenyl)-4-fluoro-2-(((2S,4R)-4-fluoro-1-methylpyrrolidin-2-yl)methoxy)-8,9-dihydro-10H-7-oxa-1,3,6,10-tetraazacyclohepta[de]naphthalen-10-yl-8,8,9,9-d4)ethyl)pyridin-2-amine], the IC50 in assay [1] is over 100 nM; in assay [2] it was 13 nM; in assay [3], 45 nM.
In the case of `CCC(c1cccnc1N)N1CCOc2nc(-c3cc(N)c(F)c(C)c3C(F)(F)F)c(F)c3nc(OC[C@@]45CCCN4C[C@H](F)C5)nc1c23` (single isomer, unassigned) [Compound 212, 3-((R or S)-1-(5-(5-amino-4-fluoro-3-methyl-2-(trifluoromethyl)phenyl)-4-fluoro-2-(((2R,7aS)-2-fluorotetrahydro-1H-pyrrolizin-7a(5H)-yl)methoxy)-8,9-dihydro-10H-7-oxa-1,3,6,10-tetraazacyclohepta[de]naphthalen-10-yl)propyl)pyridin-2-amine], the IC50 is 6 nM in assay [1], 0.3 nM in assay [2] and 0.6 nM in assay [3].
For `CC[C@@H](c1cccnc1N)N1CCOc2nc(-c3cc(N)c(F)c(C)c3C(F)(F)F)c(F)c3nc(OC[C@@]45CCCN4C[C@H](F)C5)nc1c23` (single isomer, unassigned) [Compound 213, 3-((R or S)-1-(5-(5-amino-4-fluoro-3-methyl-2-(trifluoromethyl)phenyl)-4-fluoro-2-(((2R,7aS)-2-fluorotetrahydro-1H-pyrrolizin-7a(5H)-yl)methoxy)-8,9-dihydro-10H-7-oxa-1,3,6,10-tetraazacyclohepta[de]napthalen-10-yl)propyl)pyridin-2-amine], the concentration for half-maximal inhibition (IC50) in assay [1] is over 100 nM; in assay [2] it was 13 nM; in assay [3], 18 nM.
In the case of `CCC(c1cccnc1N)N1CCOc2nc(-c3cc(N)c(F)c(Cl)c3C(F)(F)F)c(F)c3nc(OC[C@@]45CCCN4C[C@H](F)C5)nc1c23` (single isomer, unassigned) [Compound 214, 3-((R or S)-1-(5-(5-amino-3-chloro-4-fluoro-2-(trifluoromethyl)phenyl)-4-fluoro-2-(((2R,7aS)-2-fluorotetrahydro-1H-pyrrolizin-7a(5H)-yl)methoxy)-8,9-dihydro-10H-7-oxa-1,3,6,10-tetraazacyclohepta[de]naphthalen-10-yl)propyl)pyridin-2-amine], the IC50 in assay [1] came to 4 nM; in assay [2], 0.2 nM; in assay [3] it was 0.3 nM.
In the case of `CCC(c1cccnc1N)N1CCOc2nc(-c3cc(N)c(F)c(Cl)c3C(F)(F)F)c(F)c3nc(OC[C@@]45CCCN4C[C@H](F)C5)nc1c23` (single isomer, unassigned) [Compound 215, 3-((R or S)-1-(5-(5-amino-3-chloro-4-fluoro-2-(trifluoromethyl)phenyl)-4-fluoro-2-(((2R,7aS)-2-fluorotetrahydro-1H-pyrrolizin-7a(5H)-yl)methoxy)-8,9-dihydro-10H-7-oxa-1,3,6,10-tetraazacyclohepta[de]naphthalen-10-yl)propyl)pyridin-2-amine], the half-inhibitory concentration (IC50) was over 100 nM in assay [1], 21 nM in assay [2] and 36 nM in assay [3].
For `CCC(c1cccnc1N)N1CCOc2nc(-c3cc(N)c(F)c(F)c3C(F)(F)F)c(F)c3nc(OC[C@@]45CCCN4C[C@H](F)C5)nc1c23` (single isomer, unassigned) [Compound 216, 3-((R or S)-1-(5-(5-amino-3,4-difluoro-2-(trifluoromethyl)phenyl)-4-fluoro-2-(((2R,7aS)-2-fluorotetrahydro-1H-pyrrolizin-7a(5H)-yl)methoxy)-8,9-dihydro-10H-7-oxa-1,3,6,10-tetraazacyclohepta[de]naphthalen-10-yl)propyl)pyridin-2-amine], in that order: 48 nM, 2 nM and 2 nM.
With `CCC(c1cccnc1N)N1CCOc2nc(-c3cc(N)c(F)c(F)c3C(F)(F)F)c(F)c3nc(OC[C@@]45CCCN4C[C@H](F)C5)nc1c23` (single isomer, unassigned) [Compound 217, 3-((R or S)-1-(5-(5-amino-3,4-difluoro-2-(trifluoromethyl)phenyl)-4-fluoro-2-(((2R,7aS)-2-fluorotetrahydro-1H-pyrrolizin-7a(5H)-yl)methoxy)-8,9-dihydro-10H-7-oxa-1,3,6,10-tetraazacyclohepta[de]naphthalen-10-yl)propyl)pyridin-2-amine], the IC50 in assay [1], in assay [2] and in assay [3] was over 100 nM in each case.
On to `[2H]C1([2H])CC[C@@]2(COc3nc4c5c(nc(-c6cc(N)c(F)c(Cl)c6C(F)(F)F)c(F)c5n3)OC([2H])([2H])C([2H])([2H])N4[C@H](C)c3cccnc3N)C[C@@H](F)CN12` (single isomer, unassigned) [Compound 222, 3-((R or S)-1-(5-(5-amino-3-chloro-4-fluoro-2-(trifluoromethyl)phenyl)-4-fluoro-2-(((2R,7aS)-2-fluorotetrahydro-1H-pyrrolizin-7a(5H)-yl-5,5-d2)methoxy)-8,9-dihydro-10H-7-oxa-1,3,6,10-tetraazacyclohepta[de]naphthalen-10-yl-8,8,9,9-d4)ethyl)pyridin-2-amine], for which the IC50 in assay [1] was determined as 2 nM; in assay [2], 0.1 nM; in assay [3] it was 0.4 nM.
In the case of `[2H]C1([2H])CC[C@@]2(COc3nc4c5c(nc(-c6cc(N)c(F)c(Cl)c6C(F)(F)F)c(F)c5n3)OC([2H])([2H])C([2H])([2H])N4C(C)c3cccnc3N)C[C@@H](F)CN12` (single isomer, unassigned) [Compound 223, 3-((R or S)-1-(5-(5-amino-3-chloro-4-fluoro-2-(trifluoromethyl)phenyl)-4-fluoro-2-(((2R,7aS)-2-fluorotetrahydro-1H-pyrrolizin-7a(5H)-yl-5,5-d2)methoxy)-8,9-dihydro-10H-7-oxa-1,3,6,10-tetraazacyclohepta[de]naphthalen-10-yl-8,8,9,9-d4)ethyl)pyridin-2-amine], the results for the IC50 in assay [1], in assay [2] and in assay [3] were 20 nM, 2 nM and 7 nM, respectively.
For the molecule `CC(c1cccnc1N)N1CCOc2nc(-c3cc(N)c(F)c(Cl)c3C(F)(F)F)c(F)c3nc(OC[C@@]45CCCN4CC4(CC4(F)F)C5)nc1c23` (single isomer, unassigned) [Compound 227], the IC50 in assay [1] came out at 2 nM; in assay [2], 0.2 nM; in assay [3] it was 0.6 nM.
